From US20070251020A1, “Fungicidal compositions and methods of using the same” (priority 2006, published 2007)

Assays:
Aspergillus niger [1] = assay: Screening for anti-fungal activity in mineral-salts glucose medium, visual growth / no growth; format: cell-based; set-up: key: −: no growth; +: slight growth; ++: moderate growth; +++: heavy growth; ++++: very heavy growth; settings: 25° C.
Description: The pH of the medium was adjusted to 6 with 1N NaOH. The medium was distributed in 50 ml amounts into 250 ml flasks and autoclaved at 121° C. for 20 minutes. The test fungus, Aspergillus niger, was grown on potato dextrose agar for 7-10 days. A spore/hyphal suspension of the fungus was prepared by washing down the spores/hyphae from the slant with sterile saline into a bottle containing 30 ml sterile saline and shaken. The chemicals were added to the sterile mineral-salts medium in the desired concentrations, and each flask was inoculated with a suspension of the fungal suspension to give a final fungal count of approximately 1×10^6 cfu/ml. The inoculated samples were incubated at 25° C. and inspected visually for growth or no growth at 7 and 14 days.

Aspergillus niger [2] = assay: Wet blue pieces dipped in active substance, exposed to airborne spores in petri-dish growth chambers; format: cell-based; settings: wet blue dipped in 0.5% or 0.25% (by wt) mixtures, petri-dishes
Description: Sodium omadine was included among the substances tested, as a positive control. The test organism, Aspergillus niger, was grown on potato dextrose agar for 5-days in petri-dishes. The wet blue pieces were placed on top of pieces of bent glass rod, thereby preventing direct contact with the “lawn” of Aspergillus niger. Thus, exposure of the wet blue to Aspergillus niger was limited to airborne spores, simulating one of the most common modes of exposure experienced in practice. For each active substance and concentration studied, wet blue pieces were suspended both grain side up and flesh side up. A bottom half of a petri-dish was used as a cover to provide a growth chamber for each sample. These growth chambers were incubated at 25° C. and evaluated weekly to determine the degree of fungal infestation on the wet blue surfaces.

Row | SMILES | GROWTH 7-days (Aspergillus niger [1]; 1% by wt.) | GROWTH 14-days (Aspergillus niger [1]; 1% by wt.) | performance against Aspergillus niger on wet blue compared with the controls (Aspergillus niger [2]) | GROWTH 7-days (Aspergillus niger [1]; 0.5% by wt.) | GROWTH 14-days (Aspergillus niger [1]; 0.5% by wt.)
1 | CCC(=O)OCCc1ccccc1 [2-Phenylethyl propionate] | − | − | no better than the controls |  | 
2 | O=C(O)CC(O)(CC(=O)O)C(=O)O [Citric acid] | − | − |  | − | −
3 | C=CCc1ccc(O)c(OC)c1 [Eugenol] | − | − | no better than the controls | − | −
4 | CC(C)=CCC/C(C)=C/CO [Geraniol] | − | − | no better than the controls | − | −
5 | C/C=C/C=C/C(=O)[O-].[K+] [Potassium sorbate] | − | − |  | − | +++
